From ChEMBL document CHEMBL5154799, “Discovery of a Novel Stilbene Derivative as a Microtubule Targeting Agent Capable of Inducing Cell Ferroptosis” (J Med Chem, 2022)
pIC50: −log10 of the molar value.

Experiments:
[1] = AUC (0 to t) in ICR mouse at 10 mg/kg, po single administration measured for 24 hrs post treatment by LC-MS/MS analysis; type: ADME, organism-based; settings: in vivo
A549 [2] = assay: In vivo antitumor activity against human A549 cells xenografted in athymic nude BALB/c mouse assessed as tumor weight at 10 mg/kg measured after 30 days (reference value: 1 gram); type: functional; settings: time 30 day
Tubulin (Homo sapiens) [3] = target: T1, Tubulin (Homo sapiens) (UniProt P68371+Q9H4B7+P0DPH7+P68366+Q13509+Q71U36+P04350+Q3ZCM7+P07437+P68363+Q9BQE3+Q6PEY2+Q13885+Q9BVA1+Q9BUF5); assay: Inhibition of [3H]colchicine binding to tubulin (unknown origin) at 0.3725 uM by competitive binding assay relative to control; type: protein-complex assay
A549 [4] = assay: Induction of ferroptosis in human A549 cells assessed as accumulation of superoxide anions incubated for 24 hrs by DCFH-DA staining based fluorescence microscopy; type: functional, cell-based; settings: dose 5-10 nM, DDE = dose-dependent effect
[5] = Tmax in ICR mouse at 1 mg/kg, iv single administration measured for 24 hrs post treatment by LC-MS/MS analysis; type: ADME, organism-based; settings: in vivo
MGC-803 = assay: Antiproliferative activity against human MGC-803 cells assessed as inhibition of cell proliferation incubated for 2 hrs by CCK-8 assay; type: functional, cell-based; settings: DDE = dose-dependent effect
Tubulin (Homo sapiens) [6] = target: T1, Tubulin (Homo sapiens); assay: Inhibition of [3H]colchicine binding to tubulin (unknown origin) at 1.25 uM by competitive binding assay relative to control; type: protein-complex assay
[7] = Half life in ICR mouse at 10 mg/kg, po single administration measured for 24 hrs post treatment by LC-MS/MS analysis; type: ADME, organism-based; settings: in vivo
[8] = AUC (0 to infinity) in ICR mouse at 1 mg/kg, iv single administration measured for 24 hrs post treatment by LC-MS/MS analysis; type: ADME, organism-based; set-up: time 24 hrs, dose 1 mg/kg, route iv; settings: in vivo
SMMC-7721 = assay: Antiproliferative activity against human SMMC-7721 cells assessed as inhibition of cell proliferation incubated for 2 hrs by CCK-8 assay; type: functional, cell-based; settings: DDE = dose-dependent effect
A2780 = assay: Antiproliferative activity against human A2780 cells assessed as cell viability incubated for 48 hrs by MTT assay; type: functional, cell-based; settings: A2780, 48 h

`C=C(c1cc(OC)c(OC)c(OC)c1)c1ccc(OC)c(O)c1NC(=O)CO` showed an AUCt [1] of 2432.04 h/ng/mL, an Activity (A549 [2]) of 0.2 g and an inhibition (Tubulin (Homo sapiens) [3]) of 4.07%. The Activity (A549 [4]) was “Dde”, the Tmax [5] was 4.8 min and the Activity (MGC-803) was “Dde”. It also gave an inhibition (Tubulin (Homo sapiens) [6]) of 48.4%, a half-life [7] of 2.12 h and an AUC [8] of 353.02 h/ng/mL. The Activity (SMMC-7721) was “Dde” and the pIC50 (A2780) was 7.70.
